The record followed here is patent US10689354B2, “Aminoazole derivative” (Teijin Pharma Limited, priority 2015, dated 2020).

Experiment [1] deals with T1, androgen receptor (AR-LBD) (Rattus norvegicus, UniProt P15207).
T1 construct: 5 μL of 2×AR-LBD/Fluoromone AL Red Complex contained in the kit; purchased Invitrogen
T1 sequence (P15207 651-882 limits assumed): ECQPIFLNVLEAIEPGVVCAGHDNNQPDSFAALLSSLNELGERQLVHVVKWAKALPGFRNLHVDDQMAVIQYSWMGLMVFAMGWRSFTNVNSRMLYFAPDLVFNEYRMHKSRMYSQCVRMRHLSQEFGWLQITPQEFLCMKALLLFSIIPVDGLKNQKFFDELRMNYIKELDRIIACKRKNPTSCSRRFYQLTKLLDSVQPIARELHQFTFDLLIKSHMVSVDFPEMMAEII
In words: Evaluation of androgen receptor affinity (PolarScreen Androgen Receptor Competitor Assay Kit, Red; fluorescence polarization). To be noted: 22° C. for 5 hours, relative to binding rate of 1 μM DHT, read-out: AR affinity (pEC50) (converted). An outline of the steps: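 Duplicate wells; compound plus AR-LBD tracer complex incubated 22° C for 5 h, then FP measured. Effect compared with 1 μM DHT; 50%-effect concentration expressed as pEC50.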

The target in another experiment is T2, human androgen receptor (Homo sapiens, UniProt P10275).
T2 construct: expressed in transfected cells; host or cells: HEK293
T2 sequence (P10275 1-920): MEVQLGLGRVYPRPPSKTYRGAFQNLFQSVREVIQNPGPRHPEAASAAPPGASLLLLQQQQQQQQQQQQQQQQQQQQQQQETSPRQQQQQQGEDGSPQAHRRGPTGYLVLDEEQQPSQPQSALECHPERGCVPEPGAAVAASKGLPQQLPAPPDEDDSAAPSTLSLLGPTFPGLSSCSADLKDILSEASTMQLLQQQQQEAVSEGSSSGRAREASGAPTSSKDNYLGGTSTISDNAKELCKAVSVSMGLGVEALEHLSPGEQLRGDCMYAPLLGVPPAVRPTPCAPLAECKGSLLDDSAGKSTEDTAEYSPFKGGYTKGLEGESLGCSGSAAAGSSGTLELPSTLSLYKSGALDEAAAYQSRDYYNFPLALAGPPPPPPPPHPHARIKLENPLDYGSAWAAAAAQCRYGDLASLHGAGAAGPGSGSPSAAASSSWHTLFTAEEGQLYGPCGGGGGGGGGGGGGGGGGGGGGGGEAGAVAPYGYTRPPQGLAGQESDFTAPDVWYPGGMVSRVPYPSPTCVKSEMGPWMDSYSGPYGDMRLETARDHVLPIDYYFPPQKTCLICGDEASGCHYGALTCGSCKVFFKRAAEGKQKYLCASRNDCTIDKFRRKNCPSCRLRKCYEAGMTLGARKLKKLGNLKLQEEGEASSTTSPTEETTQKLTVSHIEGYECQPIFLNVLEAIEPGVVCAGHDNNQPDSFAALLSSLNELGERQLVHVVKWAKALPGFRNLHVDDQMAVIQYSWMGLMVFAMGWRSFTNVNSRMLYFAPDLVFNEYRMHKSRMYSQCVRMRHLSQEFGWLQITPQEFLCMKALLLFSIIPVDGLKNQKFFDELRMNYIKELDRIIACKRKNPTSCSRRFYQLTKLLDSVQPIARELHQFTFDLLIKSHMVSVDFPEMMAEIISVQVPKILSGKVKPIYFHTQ
In words: Reporter assay of an androgen receptor responsive sequence (luciferase, transiently transfected HEK293 cells). The format is cell-based. The conditions noted are these: 24 hours incubation, relative to activity of 100 nM DHT, read-out: AR transcriptive activity (pEC50) (converted). The essentials: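 Agonism scored as pEC50, fitted by 4-parameter curve against the response to 100 nM DHT, from dual-luciferase readout after 24 h compound treatment. Cells were HEK293 co-transfected (3 h) with human AR expression vector, androgen-responsive firefly reporter and Renilla control, in charcoal-stripped serum.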
(In general: In a reporter assay the amount or activity of a reporter protein is the signal.)

As to `CS(=O)(=O)NC(=O)c1nc(N(Cc2ccccc2F)c2ccc(C#N)cc2)sc1Br` [Example 242, 5-bromo-2-[4-cyano-N-[(2-fluorophenyl)methyl]anilino]-N-methylsulfonyl-thiazole-4-carboxamide], the EC50 in experiment [1] is 63.1 nM; on human androgen receptor, 100 nM.

`Cc1sc(N(Cc2ccccc2)c2ccc(Cl)c(Cl)c2)nc1C(=O)NS(C)(=O)=O` [Compound 37, 2-(N-benzyl-3,4-dichloro-anilino)-5-methyl-N-methylsulfonyl-thiazole-4-carboxamide]: the figures for the EC50 (in experiment [1]; at human androgen receptor) were 50.1 nM and 1260 nM, respectively.

On to `Cc1sc(N(Cc2ccc(-c3ccccc3F)nc2)c2ccc(C#N)cc2)nc1C(=O)NS(C)(=O)=O` [Compound 591, 2-[4-cyano-N-[[6-(2-fluorophenyl)-3-pyridyl]methyl]anilino]-5-methyl-N-methylsulfonyl-thiazole-4-carboxamide], for which the EC50 was 158 nM in experiment [1] and 794 nM at human androgen receptor.

Consider `Cc1sc(N(CCc2cccc(O)c2)c2ccc(C#N)cc2)nc1C(=O)NS(C)(=O)=O` [Compound 401, 2-[4-cyano-N-[2-(3-hydroxyphenyl)ethyl]anilino]-5-methyl-N-methylsulfonyl-thiazole-4-carboxamide], for which the EC50 in experiment [1] was 158 nM; on human androgen receptor it was 1580 nM.

Regarding `Cc1sc(N(Cc2nc3ccccc3s2)c2ccc(C#N)cc2)nc1C(=O)NS(C)(=O)=O` [Compound 497, 2-[N-(1,3-benzothiazol-2-ylmethyl)-4-cyano-anilino]-5-methyl-N-methylsulfonyl-thiazole-4-carboxamide], the EC50 in experiment [1] is 126 nM; on human androgen receptor, 200 nM.

With `Cc1sc(N(CC[Si](C)(C)C)c2ccc(C#N)cc2)nc1C(=O)NS(C)(=O)=O` [Compound 476, 2-[4-cyano-N-(2-trimethylsilylethyl)anilino]-5-methyl-N-methylsulfonyl-thiazole-4-carboxamide], the EC50 in experiment [1] is 200 nM; at human androgen receptor, over 10000 nM.

Turning to `Cc1sc(N(CCCOc2ccccc2)c2ccc(C#N)cc2)nc1C(=O)NS(C)(=O)=O` [Compound 368, 2-[4-cyano-N-(3-phenoxypropyl)anilino]-5-methyl-N-methylsulfonyl-thiazole-4-carboxamide], the results for the EC50 (in experiment [1]; on human androgen receptor) were 100 nM and over 10000 nM, respectively.

In the case of `COCCOc1ccc(CN(c2ccc(C#N)cc2)c2nc(C(=O)NS(C)(=O)=O)c(C)s2)cc1` [Compound 566, 2-[4-cyano-N-[[4-(2-methoxyethoxy)phenyl]methyl]anilino]-5-methyl-N-methylsulfonyl-thiazole-4-carboxamide], the results for the EC50 (in experiment [1]; at human androgen receptor) were 200 nM and 1580 nM, respectively.

Take `Cc1sc(N(Cc2ccccc2)c2ccc3ncsc3c2)nc1C(=O)NS(C)(=O)=O` [Compound 335, 2-[1,3-benzothiazol-6-yl(benzyl)amino]-5-methyl-N-methylsulfonyl-thiazole-4-carboxamide]: the EC50 in experiment [1] is 631 nM; at human androgen receptor it was 1580 nM.

On to `Cc1sc(N(CC[C@@H]2CCCC[C@@H]2O)c2ccc(C#N)cc2)nc1C(=O)NS(C)(=O)=O` (racemic) [Compound 409, 2-[4-cyano-N-[2-[cis-2-hydroxycyclohexyl]ethyl]anilino]-5-methyl-N-methylsulfonyl-thiazole-4-carboxamide], for which the EC50 (in experiment [1]; on human androgen receptor) was 251 nM throughout.

`COc1ccc(CCN(c2ccc(C#N)cc2)c2nc(C(=O)NS(C)(=O)=O)c(C)s2)cc1` [Compound 400, 2-[4-cyano-N-[2-(4-methoxyphenyl)ethyl]anilino]-5-methyl-N-methylsulfonyl-thiazole-4-carboxamide]: the EC50 in experiment [1] was 631 nM; at human androgen receptor it was over 10000 nM.

On to `Cc1sc(N(Cc2ccccc2)c2ccc(C#N)c(C(F)(F)F)c2)nc1C(=O)NS(C)(=O)=O` [Compound 451, 2-[N-benzyl-4-cyano-3-(trifluoromethyl)anilino]-5-methyl-N-methylsulfonyl-thiazole-4-carboxamide], for which the EC50 in experiment [1] was 25.1 nM; on human androgen receptor, 50.1 nM.

`Cc1sc(N(Cc2cccc3cccnc23)c2ccc(C#N)cc2)nc1C(=O)NS(C)(=O)=O` [Compound 390, 2-[4-cyano-N-(8-quinolylmethyl)anilino]-5-methyl-N-methylsulfonyl-thiazole-4-carboxamide]: the EC50 was 126 nM in experiment [1] and 200 nM at human androgen receptor.

In the case of `CS(=O)(=O)NC(=O)c1nc(N(Cc2ccc(OC(F)F)cc2)c2ccc(C#N)cc2)sc1Cl` [Example 277, 5-chloro-2-[4-cyano-N-[[4-(difluoromethoxy)phenyl]methyl]anilino]-N-methylsulfonyl-thiazole-4-carboxamide], the EC50 in experiment [1] is 63.1 nM; on human androgen receptor it was 50.1 nM.

With `Cc1sc(N(Cc2ccccc2)c2ccc(C#N)cc2)nc1C(=O)NS(C)(=O)=O` [Compound 1, 2-(N-benzyl-4-cyano-anilino)-5-methyl-N-methylsulfonyl-thiazole-4-carboxamide], the EC50 was 63.1 nM in experiment [1] and 79.4 nM at human androgen receptor.

As to `Cc1sc(N(CCc2ccc(OC(F)(F)F)cc2)Cc2ccc(C#N)cc2)nc1C(=O)NS(C)(=O)=O` [Compound 506, 2-[(4-cyanophenyl)methyl-[2-[4-(trifluoromethoxy)phenyl]ethyl]amino]-5-methyl-N-methylsulfonyl-thiazole-4-carboxamide], the EC50 is 25.1 nM in experiment [1] and over 10000 nM at human androgen receptor.

`CS(=O)(=O)NC(=O)c1nc(N(Cc2ccc(OC(F)F)cc2)c2ccc(C#N)cc2)oc1C1CC1` [Compound 648, 2-[4-cyano-N-[[4-(difluoromethoxy)phenyl]methyl]anilino]-5-cyclopropyl-N-methylsulfonyl-oxazole-4-carboxamide]: the EC50 was 50.1 nM in experiment [1] and over 10000 nM on human androgen receptor.

With `COc1cccc(CCN(c2ccc(C#N)cc2)c2nc(C(=O)NS(C)(=O)=O)c(C)s2)c1` [Compound 399, 2-[4-cyano-N-[2-(3-methoxyphenyl)ethyl]anilino]-5-methyl-N-methylsulfonyl-thiazole-4-carboxamide], the EC50 in experiment [1] was 251 nM; on human androgen receptor, over 10000 nM.

As for `COCCCS(=O)(=O)NC(=O)c1nc(N(Cc2ccc(OC(F)F)c(F)c2)c2ccc(C#N)cc2)sc1C` [Compound 526, 2-[4-cyano-N-[[4-(difluoromethoxy)-3-fluoro-phenyl]methyl]anilino]-N-(3-methoxypropylsulfonyl)-5-methyl-thiazole-4-carboxamide], the EC50 in experiment [1] is 39.8 nM; at human androgen receptor it was 100 nM.

Consider `Cc1sc(N(Cc2ccc(Br)cc2Cl)c2ccc(C#N)cc2)nc1C(=O)NS(C)(=O)=O` [Example 183, 2-[N-[(4-bromo-2-chloro-phenyl)methyl]-4-cyano-anilino]-5-methyl-N-methylsulfonyl-thiazole-4-carboxamide], for which the EC50 in experiment [1] was 63.1 nM; at human androgen receptor it was 501 nM.

Consider `Cc1sc(N(CCc2ccc(C(F)(F)F)cc2)Cc2ccccc2)nc1C(=O)NS(C)(=O)=O` [Compound 333, 2-[benzyl-[2-[4-(trifluoromethyl)phenyl]ethyl]amino]-5-methyl-N-methylsulfonyl-thiazole-4-carboxamide], for which the EC50 is 25.1 nM in experiment [1] and 100 nM on human androgen receptor.

As to `Cc1sc(N(Cc2ncc(F)cc2F)c2ccc(C#N)cc2)nc1C(=O)NS(C)(=O)=O` [Compound 527, 2-[4-cyano-N-[(3,5-difluoro-2-pyridyl)methyl]anilino]-5-methyl-N-methylsulfonyl-thiazole-4-carboxamide], the values for the EC50 (in experiment [1]; on human androgen receptor) were 501 nM and 1000 nM, respectively.
